Measurements reported in US11505533B2, “Metabolically stable N-acylaminooxadiazoles useful as antibacterial agents” (MICROBIOTIX, INC., priority 2017, dated 2022).
Converted amounts (≈) assume the structure as drawn.

Key:
[1] = Aqueous solubility, nephelometry; settings: water, kinetic from dmso stock
MRSA-1094 (MDR) = type: cell-based; settings: Staphylococcus aureus; MRSA-1094 (MDR); read-out: MIC
MRSA USA 300 (BAA-1717) = type: cell-based; settings: Staphylococcus aureus; MRSA USA 300 (BAA-1717); read-out: MIC
[2] = tested on: E. coli (700, TolC+) efflux pos; type: cell-based; settings: Escherichia coli; E. coli (700, TolC+) efflux pos; read-out: MIC
[3] = Mammalian cell cytotoxicity
E. coli TolC(−) [4] = assay: TolC(−) MIC (NB); type: cell-based; settings: Escherichia coli, read-out: TolC(−) MIC (μM)(NB)
[5] = tested on: S. aureus ATCC 25923 (MSSA. osteomyelitis isolate); type: cell-based; settings: Staphylococcus aureus; S. aureus ATCC 25923 (MSSA); read-out: MIC
[6] = Mouse serum binding, equilibrium dialysis
[7] = tested on: Legionella pneumophila 33153; assay: microbe, parasite or virus in culture; type: cell-based
[8] = Microsomal stability + NADPH; settings: mouse liver microsomes, 0.5 hr at 37° C.
N. gonorrhoeae 49226 = type: cell-based; settings: Neisseria gonorrhoeae; N. gonorrhoeae 49226; read-out: MIC
[9] = tested on: Haemophilus influenza 35056; type: cell-based; settings: Haemophilus influenza 35056; read-out: MIC
S. pneumoniae 49619 = type: cell-based; settings: Streptococcus pneumoniae; S. pneumoniae 49619; read-out: MIC
M. pneumoniae 15531 = type: cell-based; settings: Mycoplasmoides pneumoniae; M. pneumoniae 15531; read-out: MIC
[10] = tested on: Moraxella catarrhalis 8176; type: cell-based; settings: read-out: MIC
Mouse serum stability = settings: 5 μM, 37° C., 4 h
Caco-2 permeability = type: in vitro ADME; settings: human, direction not given
Source text: Res., 15(5): 726-733 (1998).

E. coli TolC(−) [11] = settings: MIC in the presence of 10% fetal calf serum versus without

| SMILES | solubility [1] [µM] | MIC (MRSA-1094 (MDR)) [µg/mL] | MIC (MRSA USA 300 (BAA-1717)) [µg/mL] | MIC [2] [µg/mL] | CC50 [3] [µM] | MIC (E. coli TolC(−) [4]) [µM] | MIC [5] [µg/mL] | fraction unbound [6] | MIC [7] [µg/mL] | Microsomal Stability + NADPH % degraded [8] [%] | MIC (N. gonorrhoeae 49226) [µg/mL] | MIC [9] [µg/mL] | MIC (S. pneumoniae 49619) [µg/mL] | MIC (M. pneumoniae 15531) [µg/mL] | MIC [10] [µg/mL] | Serum Stability (% remain) (Mouse serum stability) [%] | Papp (Caco-2 permeability) [×10⁻⁶ cm/s] | Fold Serum Shift vs. TolC(−) (E. coli TolC(−) [11]) [fold] |
| --- | --- | --- | --- | --- | --- | --- | --- | --- | --- | --- | --- | --- | --- | --- | --- | --- | --- | --- |
| CCN(c1ccccc1)c1ccc(C(=O)Nc2nnc(-c3ccc(F)cc3)o2)cc1 [compound 4285] | 3.12 (≈ 1.26 µg/mL) | 2.52 (≈ 6.26 µM) | 0.63 (≈ 1.57 µM) | > 40 | 59.9 | 2.48 (≈ 0.998 µg/mL) | 6.34 (≈ 15.8 µM) | – | – | – | – | – | – | – | – | – | – | – |
| CC(C)(C)OC(=O)N1CC(Oc2ccc(C(=O)Nc3nnc(-c4ccc(F)cc4)o3)cc2)C1 [compound 4288] | 25 (≈ 11.4 µg/mL) | 5.68 (≈ 12.5 µM) | 2.01 (≈ 4.42 µM) | > 45 | 6.6 | 3.51 (≈ 1.59 µg/mL) | 7.16 (≈ 15.8 µM) | – | – | – | – | – | – | – | – | – | – | – |
| O=C(Nc1nnc(-c2ccc(F)cc2)o1)c1ccc(OC2CCCC2)cc1 [compound 4293] | 3.12 (≈ 1.15 µg/mL) | 0.72 (≈ 1.96 µM) | 0.29 (≈ 0.789 µM) | > 36 | 31.8 | 1.39 (≈ 0.511 µg/mL) | 1.15 (≈ 3.13 µM) | 0.001 | 0.59 (≈ 1.61 µM) | 59 | 0.09 (≈ 0.245 µM) | 12.2 (≈ 33.3 µM) | 4.59 (≈ 12.5 µM) | 18.4 (≈ 50.1 µM) | < 0.02 | 88 | – | – |
| O=C(Nc1nnc(-c2ccc(F)cc2)o1)c1ccc(Oc2cccc(O)c2)cc1 [compound 4304] | 50 (≈ 19.6 µg/mL) | – | – | – | > 100 | 3.51 (≈ 1.37 µg/mL) | – | < 0.01 | – | 85 | – | – | – | – | – | – | 13.7 | 28.5 |
| O=C(Nc1nnc(-c2ccc(F)cc2)o1)N1Cc2ccccc2C1 [compound 4330] | 3.13 (≈ 1.02 µg/mL) | 2.03 (≈ 6.26 µM) | 1.01 (≈ 3.11 µM) | > 32 | > 100 | 6.25 (≈ 2.03 µg/mL) | ≥ 32 | – | – | 43.5 | 0.16 (≈ 0.493 µM) | – | – | – | – | – | – | – |
| O=C(Nc1nnc(-c2ccc(F)cc2)o1)N1CCc2ccc(F)cc2C1 [compound 4332] | 3.13 (≈ 1.12 µg/mL) | 5 (≈ 14 µM) | – | > 35 | 14.4 | 3.12 (≈ 1.11 µg/mL) | 7.07 (≈ 19.8 µM) | – | – | <30 | 0.089 (≈ 0.25 µM) | – | – | – | – | – | – | – |
| O=C(Nc1nnc(-c2ccc(F)cc2)o1)N1CC=C(C(F)(F)F)CC1 [compound 4347] | 3.1 (≈ 1.1 µg/mL) | 2.23 (≈ 6.26 µM) | – | > 27 | > 100 | 2.48 (≈ 0.884 µg/mL) | > 35 | < 0.01 | – | <30 | 0.089 (≈ 0.25 µM) | – | – | – | – | 93 | 21.8 | – |
| CC1=CCN(C(=O)Nc2nnc(-c3ccc(F)cc3)o2)CC1 [compound 4366] | 25 (≈ 7.56 µg/mL) | – | – | – | 46 | 6.25 (≈ 1.89 µg/mL) | – | 0.051 | – | 45 | – | – | – | – | – | 95 | 67.3 | 4 |
| O=C(Nc1nnc(C2CCCCC2)o1)c1ccc(Oc2cccc(O)c2)cc1 [compound 4801] | 12.5 (≈ 4.74 µg/mL) | – | – | – | – | 3.13 (≈ 1.19 µg/mL) | – | – | – | – | – | – | – | – | – | >95 | 13.2 | 16 |
| O=C(Nc1nnc(C2CCCCC2)o1)N1CCC(Cl)=C(Cl)C1 [compound 4808] | – | – | – | – | – | 6.25 (≈ 2.16 µg/mL) | – | – | – | – | – | – | – | – | – | >95 | 24.5 | – |
